Data from ChEMBL document CHEMBL1150698, “Placidenes C-F, novel alpha-pyrone propionates from the Mediterranean sacoglossan Placida dendritica” (J Nat Prod, 2003).

Columns and labels:
[1] = Stability at pH 1 to 5; assay type: physicochemical; details: buffer
Gambusia affinis = test: Toxicity in Gambusia affinis; assay type: organism-based; details: in vivo

Row | Compound | Stability [1] | Activity (Gambusia affinis)
1 | CCC(C)/C=C/c1oc(=O)cc(OC)c1C (configuration not stated) [PLACIDENE C] | Stable | Non-toxic
2 | C/C=C(C)\C=C(/C)c1oc(=O)c(C)c(OC)c1C [PLACIDENE F] | – | Non-toxic
3 | CCCC(C)c1oc(=O)cc(OC)c1C (configuration not stated) [PLACIDENE E] | – | Non-toxic
4 | CCCC(C)/C=C/c1oc(=O)cc(OC)c1C (configuration not stated) [PLACIDENE D] | – | Non-toxic
5 | CC/C=C(C)\C=C(/C)c1oc(OC)c(C)c(=O)c1C [PLACIDENE A] | Stable | Non-toxic
